From PubChem BioAssay (NCI)
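Step 1: Grow cells in 96-well plates. Step 2: Expose to compound for 48 hours at 5 concentrations. Step 3: Interpolate endpoints linearly; if unreached, use highest concentration. At the TGI there is no net growth.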

Columns and labels:
Assay in all cases: growth of human tumour cells (NCI), 48 h
SR leukemia = tested on: SR leukemia
OVCAR-4 ovarian = tested on: OVCAR-4 ovarian
NCI-H23 lung = tested on: NCI-H23 lung
OVCAR-3 ovarian = tested on: OVCAR-3 ovarian
UACC-257 melanoma = tested on: UACC-257 melanoma
HCT-116 colon = tested on: HCT-116 colon
BT-549 breast = tested on: BT-549 breast
SK-MEL-5 melanoma = tested on: SK-MEL-5 melanoma
MOLT-4 leukemia = tested on: MOLT-4 leukemia
NCI-H522 lung = tested on: NCI-H522 lung

Row | SMILES | TGI (SR leukemia) [µM] | TGI (OVCAR-4 ovarian) [µM] | TGI (NCI-H23 lung) [µM] | TGI (OVCAR-3 ovarian) [µM] | TGI (UACC-257 melanoma) [µM] | TGI (HCT-116 colon) [µM] | TGI (BT-549 breast) [µM] | TGI (SK-MEL-5 melanoma) [µM] | TGI (MOLT-4 leukemia) [µM] | TGI (NCI-H522 lung) [µM]
1 | Cc1ccc([N+](=O)[O-])cc1S(=O)(=O)Nc1ccc(C2=NN(c3ccc([N+](=O)[O-])cc3[N+](=O)[O-])C(c3ccccc3)C2)cc1 (stereo not given) | 90 | 73.7 | 31.5 | 28.4 | 40.7 | 27.4 | 33 | 25.1 | 70.8 | 25.9
2 | O=[N+]([O-])c1cccc(-c2csc(N=Nc3c(O)[nH]c4ccccc34)n2)c1 | 96.9 | 61.7 | > 100 | > 100 | 41.3 | 33.2 | > 100 | 49.9 | 69.6 | 36.6
3 | CC(C)(CO)CNc1cc(=O)[nH]c(N)n1 | > 100 | > 100 | > 100 | > 100 | > 100 | > 100 | > 100 | > 100 | > 100 | > 100
4 | CCCCOC(=O)C(=O)C(CCC(=O)c1ccc(C)cc1)C(=O)C=C(C)C (stereo not given) | > 100 | > 100 | > 100 | > 100 | > 100 | > 100 | > 100 | > 100 | > 100 | > 100
